Laboratory results taken from ChEMBL document CHEMBL5291721, “A preclinical secondary pharmacology resource illuminates target-adverse drug reaction associations of marketed drugs” (Nat Commun, 2023).

Tests used:
[1] = target: T1, Substance-K receptor (Homo sapiens, UniProt P21452)
T1 sequence (P21452 whole entry): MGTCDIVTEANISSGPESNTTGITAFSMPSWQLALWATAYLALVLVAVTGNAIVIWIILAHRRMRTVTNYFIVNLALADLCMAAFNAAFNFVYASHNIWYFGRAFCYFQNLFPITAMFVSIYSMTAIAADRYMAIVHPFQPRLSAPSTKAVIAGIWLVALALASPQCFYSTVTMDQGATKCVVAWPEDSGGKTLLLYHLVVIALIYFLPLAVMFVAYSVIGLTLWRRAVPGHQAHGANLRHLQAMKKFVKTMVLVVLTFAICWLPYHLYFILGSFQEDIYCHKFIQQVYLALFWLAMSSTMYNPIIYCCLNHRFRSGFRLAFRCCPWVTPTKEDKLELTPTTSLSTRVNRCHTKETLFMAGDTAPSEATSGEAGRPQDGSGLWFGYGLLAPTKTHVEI

[2] = target: T2, Alpha-2A adrenergic receptor (Homo sapiens, UniProt P08913)
T2 sequence (P08913 whole entry): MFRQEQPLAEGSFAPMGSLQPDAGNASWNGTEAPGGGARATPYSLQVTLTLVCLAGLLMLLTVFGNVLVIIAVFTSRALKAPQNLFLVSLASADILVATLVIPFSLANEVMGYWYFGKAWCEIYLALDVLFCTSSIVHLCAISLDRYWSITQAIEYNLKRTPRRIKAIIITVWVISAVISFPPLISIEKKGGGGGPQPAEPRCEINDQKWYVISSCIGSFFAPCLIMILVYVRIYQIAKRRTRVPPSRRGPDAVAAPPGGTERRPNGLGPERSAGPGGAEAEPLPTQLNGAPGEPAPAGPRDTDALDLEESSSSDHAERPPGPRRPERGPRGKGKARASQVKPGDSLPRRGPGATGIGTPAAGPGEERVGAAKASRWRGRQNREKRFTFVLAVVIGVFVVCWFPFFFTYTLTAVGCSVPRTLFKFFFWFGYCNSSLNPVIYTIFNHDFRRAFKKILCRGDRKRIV

[3] = target: T3, Peroxisome proliferator-activated receptor alpha (Homo sapiens, UniProt Q07869); type: functional
T3 sequence (Q07869 whole entry): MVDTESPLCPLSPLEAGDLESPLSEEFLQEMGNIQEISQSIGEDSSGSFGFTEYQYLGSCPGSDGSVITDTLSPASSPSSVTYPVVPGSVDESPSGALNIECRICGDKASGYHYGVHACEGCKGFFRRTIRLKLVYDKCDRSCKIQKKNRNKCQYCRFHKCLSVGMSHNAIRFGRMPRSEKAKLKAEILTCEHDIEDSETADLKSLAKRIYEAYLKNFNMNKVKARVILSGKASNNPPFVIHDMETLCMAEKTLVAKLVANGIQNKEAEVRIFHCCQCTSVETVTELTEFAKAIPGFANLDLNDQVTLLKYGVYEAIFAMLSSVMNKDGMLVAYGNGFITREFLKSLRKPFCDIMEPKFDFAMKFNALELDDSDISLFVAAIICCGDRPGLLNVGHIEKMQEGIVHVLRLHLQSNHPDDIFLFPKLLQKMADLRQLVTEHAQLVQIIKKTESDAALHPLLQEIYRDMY

[4] = target: T4, Nuclear receptor subfamily 1 group I member 3 (Homo sapiens, UniProt Q14994); type: functional
T4 sequence (Q14994 whole entry): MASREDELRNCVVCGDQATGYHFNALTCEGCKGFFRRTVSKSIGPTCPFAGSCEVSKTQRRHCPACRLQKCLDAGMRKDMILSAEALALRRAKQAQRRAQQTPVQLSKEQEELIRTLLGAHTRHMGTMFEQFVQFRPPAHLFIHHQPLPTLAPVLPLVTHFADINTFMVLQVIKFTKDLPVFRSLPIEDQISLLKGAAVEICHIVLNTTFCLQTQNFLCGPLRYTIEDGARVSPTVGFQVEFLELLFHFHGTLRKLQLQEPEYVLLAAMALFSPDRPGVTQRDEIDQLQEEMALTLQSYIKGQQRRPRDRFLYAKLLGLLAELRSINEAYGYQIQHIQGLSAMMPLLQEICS

[5] = target: T5, Oxysterols receptor LXR-beta (Homo sapiens, UniProt P55055); type: functional
T5 sequence (P55055 whole entry): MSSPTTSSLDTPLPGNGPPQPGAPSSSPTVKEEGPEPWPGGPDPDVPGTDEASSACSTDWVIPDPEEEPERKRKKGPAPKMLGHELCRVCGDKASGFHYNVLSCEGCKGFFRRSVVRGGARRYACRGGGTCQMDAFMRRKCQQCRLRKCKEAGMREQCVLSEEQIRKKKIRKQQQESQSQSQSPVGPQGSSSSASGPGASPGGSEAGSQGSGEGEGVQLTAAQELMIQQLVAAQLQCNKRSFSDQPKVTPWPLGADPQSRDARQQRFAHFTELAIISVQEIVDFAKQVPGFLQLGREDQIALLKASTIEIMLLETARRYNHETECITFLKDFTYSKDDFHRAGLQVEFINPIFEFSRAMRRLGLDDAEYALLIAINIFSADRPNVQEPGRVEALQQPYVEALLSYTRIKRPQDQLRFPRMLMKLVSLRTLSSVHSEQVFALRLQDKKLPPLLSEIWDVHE

[6] = target: T6, Retinoic acid receptor beta (Homo sapiens, UniProt P10826); type: functional, cell-based
T6 sequence (P10826 whole entry): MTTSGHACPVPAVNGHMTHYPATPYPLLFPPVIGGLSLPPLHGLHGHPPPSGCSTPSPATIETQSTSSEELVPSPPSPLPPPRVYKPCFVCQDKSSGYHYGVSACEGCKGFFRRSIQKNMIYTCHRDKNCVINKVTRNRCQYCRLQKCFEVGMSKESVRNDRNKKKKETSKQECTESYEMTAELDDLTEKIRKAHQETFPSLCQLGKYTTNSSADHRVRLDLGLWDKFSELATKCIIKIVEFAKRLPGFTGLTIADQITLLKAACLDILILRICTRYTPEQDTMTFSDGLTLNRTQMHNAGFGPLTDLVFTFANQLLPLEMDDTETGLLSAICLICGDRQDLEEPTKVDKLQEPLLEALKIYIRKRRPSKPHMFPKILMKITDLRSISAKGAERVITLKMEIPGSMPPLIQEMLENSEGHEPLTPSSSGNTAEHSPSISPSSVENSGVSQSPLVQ
Also: assay procedure not described here.

Row | Compound | AC50 [1] [µM] | AC50 [2] [µM] | also measured
1 | CCOC(=O)[C@H](CCc1ccccc1)N[C@@H](C)C(=O)N1CCC[C@H]1C(=O)O | > 10 | – | –
2 | Nc1nc(N)c2nc(-c3ccccc3)c(N)nc2n1 | > 10 | > 30 | –
3 | Oc1ncnc2[nH]ncc12 [ALLOPURINOL] | – | > 30 | –
4 | C#C[C@]1(O)CC[C@H]2[C@@H]3CCc4cc(O)ccc4[C@H]3CC[C@@]21C [ETHINYL ESTRADIOL] | – | – | AC50 [3]: > 30 µM
5 | NC(N)=Nc1nc(CSCCC(N)=NS(N)(=O)=O)cs1 [FAMOTIDINE] | > 10 | – | –
6 | CC(C)C(=O)Nc1ccc([N+](=O)[O-])c(C(F)(F)F)c1 [FLUTAMIDE] | – | > 30 | –
7 | COc1ccc2c(c1)C(=O)N(CCc1ccc(S(=O)(=O)NC(=O)NC3CCCCC3)cc1)C(=O)C2(C)C [GLIQUIDONE] | – | – | AC50 [4]: 4.8 µM; AC50 [3]: > 30 µM; AC50 [5]: > 30 µM; AC50 [6]: > 30 µM
8 | NS(=O)(=O)c1cc2c(cc1Cl)NCNS2(=O)=O [HYDROCHLOROTHIAZIDE] | > 10 | – | –
9 | NC(=O)c1cnccn1 [PYRAZINAMIDE] | – | > 30 | –
10 | O=C(NC[C@H]1CN(c2ccc(N3CCOCC3=O)cc2)C(=O)O1)c1ccc(Cl)s1 [RIVAROXABAN] | – | – | AC50 [3]: > 30 µM
11 | Cc1ccc(C(=O)c2cc(O)c(O)c([N+](=O)[O-])c2)cc1 [TOLCAPONE] | – | – | AC50 [4]: 13 µM
12 | O=C(CCCCCCC(=O)Nc1ccccc1)NO [VORINOSTAT] | > 10 | – | –
